Laboratory results as given in PubChem BioAssay AID651574 (The Scripps Research Institute Molecular Screening Center, 2012).
Activity calls are given as the source filed them. No rule for the calls is given here.

Test system: Core protein (Hepatitis C virus)
Assay: HCV infectivity inhibition in infected cells, late-stage follow-up, counter-screen for HCV core dimerization inhibitor project, cell-based, fluorescence qPCR, two timepoints (AID 651574)
Conditions: viral RNA qPCR

For `Cc1ccc(Cc2c(C)nc3nc(SCC(=O)NCCN4CCCN(S(C)(=O)=O)CC4)nn3c2C)cc1`, the IC50 (timepoint 1) was 18.9 µM and the IC50 (timepoint 2) was 24.3 µM (inactive).
`Cc1ccc(Cc2c(C)nc3nc(SCC(=O)NCCN4CCOCC4)nn3c2C)cc1` gave an IC50 (timepoint 1) of 12 µM.
`Cc1ccc(Cc2c(C)nc3nc(SCC(=O)NCCN4CCN(S(=O)(=O)c5ccccc5)CC4)nn3c2C)cc1` gave an IC50 (timepoint 1) of 5.3 µM and an IC50 (timepoint 2) of 12.5 µM.
`Cc1ccc(Cc2c(C)nc3nc(SCC(=O)NCCN4CCN(Cc5ccc(F)cc5)CC4)nn3c2C)cc1` was tested, and the IC50 (timepoint 1) was 0.099 µM.
`Cc1ccc(Cc2c(C)nc3nc(SCC(=O)NCCN4CCCCCC4)nn3c2C)cc1` gave an IC50 (timepoint 1) of 8.5 µM and an IC50 (timepoint 2) of 13.7 µM.
Work on `Cc1ccc(Cc2c(C)nc3nc(SCC(=O)NCCN4CCCN(S(=O)(=O)c5ccc(C)cc5)CC4)nn3c2C)cc1` yielded an IC50 (timepoint 1) of 2.7 µM and an IC50 (timepoint 2) of 7.2 µM.
`Cc1ccc(Cc2c(C)nc3nc(SCC(=O)NCCN4CCCN(S(=O)(=O)c5ccccc5)CC4)nn3c2C)cc1` gave an IC50 (timepoint 1) of 3.2 µM and an IC50 (timepoint 2) of 2.2 µM.
`Cc1ccc(Cc2c(C)nc3nc(SCC(=O)NCCN4CCN(CCc5ccccc5)CC4)nn3c2C)cc1` was tested, and the IC50 (timepoint 1) was 3.07 µM.
In the case of `Cc1ccc(Cc2c(C)nc3nc(SCC(=O)NCCN4CCNCC4)nn3c2C)cc1`, the IC50 (timepoint 2) is reported as 1.8 µM.
Work on `Cc1ccc(Cc2c(C)nc3nc(SCC(=O)NCCCN4CCCCCC4)nn3c2C)cc1` yielded an IC50 (timepoint 1) of 6.7 µM and an IC50 (timepoint 2) of 12 µM.
Molecule `Cc1ccc(Cc2c(CCc3ccccc3)nc3nc(SC(Cc4ccccc4)C(=O)NCCN4CCOCC4)nn3c2C)cc1` (configuration not stated) has an IC50 (timepoint 1) of 7.7 µM.
